# Patent US20260183253A1, “TREATING LIVER CANCERS WITH HYDROXYUREAMETHYL ACYLFULVENE” (Lantern Pharma Inc., priority 2023, published 2026)
# Test system: liver cancer cell lines including SNU387, SNU475, SNU449, and HEPG2
# Assay: Cell viability, CellTiter-Fluor assay, 72 h treatment
# Assay type: cell-based
# Details: values shown only in FIG. 1
# Protocol: Liver cancer cell lines including SNU387, SNU475, SNU449, and HEPG2, were obtained from the American Type Culture Collection (ATCC), ensuring standardized and reliable cell sources. […] Cells were seeded into 96-well plates at a density optimized for exponential growth, allowing sufficient space for cellular proliferation during the course of the experiment. Each well was seeded with an equal number of cells to ensure consistency across the experiment. Following seeding, cells were allowed to adhere and acclimatize for 24 hours at 37° C. in a humidified incubator with 5% CO2, maintaining optimal growth conditions. Once acclimated, the cells were treated with either a vehicle control (DMSO) or varying concentrations of LP-184. […]
# Following the 72-hour treatment period, cell viability was assessed using the CellTiter-Fluor® assay from Promega, a sensitive fluorescence-based assay that quantifies the number of viable cells based on the presence of active cellular proteases. […]
# The plates were then incubated for an additional 30 minutes at 37° C. to allow the enzymatic reaction to occur, resulting in the cleavage of the fluorogenic substrate by viable cells. […] The fluorescence signal was measured using a plate reader set to an excitation wavelength of 400 nm and an emission wavelength of 505 nm, parameters optimized for the GF-AFC substrate. […]
smiles,measurement,value
"CC1=C(CN(O)C(N)=O)C2=C(C)C3(CC3)[C@@](C)(O)C(=O)C2=C1 [LP-184, (−)-hydroxyureamethyl acylfulvene]",IC50 (nM) against various liver cancer cell lines,nanomolar potency
